What all share (assay): biochemical
What all share (set-up): DiscoverX KinomeScan competition binding assay across human kinases; per cent of control at 10 and 100 uM

The target in one experiment is T1, ASK1 (Homo sapiens, UniProt Q99683).
T1 construct: gene MAP3K5
As to conditions: competition binding, % of control; read-out: Percent Control (100 uM Levosimendan). In a few lines: (§1)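 KinomeScan competition binding was run across a human kinase panel at 10 μM and 100 μM levosimendan. Results are %control = (test − positive control)/(negative control − positive control) × 100.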

The target in another experiment is LIMK2 (Homo sapiens, UniProt P53671). As to conditions: competition binding, % of control; read-out: Percent Control (100 uM Levosimendan). In outline:
as §1

The target in a further experiment is BLK (Homo sapiens, UniProt P51451). Conditions: competition binding, % of control. In outline: as §1
The next experiment addresses CAMK2B (Homo sapiens, UniProt Q13554). Conditions: competition binding, % of control; read-out: Percent Control (100 uM Levosimendan). In outline:
as §1

The target in a further experiment is PRKD3 (Homo sapiens, UniProt O94806). Conditions: competition binding, % of control; read-out: Percent Control (100 uM Levosimendan). In outline: as §1
A further experiment addresses T2, TIE2 (Homo sapiens, UniProt Q02763).
T2 construct: gene TEK
As to conditions: competition binding, % of control; read-out: Percent Control (100 uM Levosimendan). In outline:
as §1

The target in another experiment is T3, CDK4-cyclinD3 (Homo sapiens, UniProt P11802).
T3 construct: cyclinD3
Conditions: competition binding, % of control; read-out: Percent Control (100 uM Levosimendan). In a few lines: as §1

The next experiment concerns the target HIPK3 (Homo sapiens, UniProt Q9H422). Conditions: competition binding, % of control; read-out: Percent Control (100 uM Levosimendan). In outline: as §1
The target of the next experiment is CSK (Homo sapiens, UniProt P41240). As to conditions: competition binding, % of control; read-out: Percent Control (100 uM Levosimendan). In outline:
as §1

In experiment [1] the target is T4, RSK1(Kin.Dom.1-N-terminal) (Homo sapiens, UniProt Q15418).
T4 construct: gene RPS6KA1; Kin.Dom.1-N-terminal
Conditions: competition binding, % of control; read-out: Percent Control (100 uM Levosimendan). In outline: as §1

The next experiment has as its target T5, ERK2 (Homo sapiens, UniProt P28482).
T5 construct: gene MAPK1
Conditions: competition binding, % of control; read-out: Percent Control (100 uM Levosimendan). In a few lines:
as §1

For a further experiment, the target named is CSNK1D (Homo sapiens, UniProt P48730). As to conditions: competition binding, % of control; read-out: Percent Control (100 uM Levosimendan). In a few lines:
as §1

The target in a further experiment is ROCK2 (Homo sapiens, UniProt O75116). Conditions: competition binding, % of control. In a few lines:
as §1

The target of a further experiment is ACVRL1 (Homo sapiens, UniProt P37023). Conditions: competition binding, % of control. In outline: as §1
The target in another experiment is T6, p38-gamma (Homo sapiens, UniProt P53778).
T6 construct: gene MAPK12
Conditions: competition binding, % of control. In outline: as §1

A further experiment concerns the target T7, ABL1-phosphorylated (Homo sapiens, UniProt P00519).
T7 construct: phosphorylated
As to conditions: competition binding, % of control. In a few lines:
as §1

In experiment [2] the target is T8, ABL1(Q252H)-phosphorylated (Homo sapiens, UniProt P00519, Q252H).
T8 construct: phosphorylated
As to conditions: competition binding, % of control; read-out: Percent Control (100 uM Levosimendan). In outline: as §1

A further experiment deals with TSSK1B (Homo sapiens, UniProt Q9BXA7). Conditions: competition binding, % of control; read-out: Percent Control (100 uM Levosimendan). In outline: as §1
Setting [3] is: read-out: Percent Control (10 uM Levosimendan).
[4] abbreviates: read-out: Percent Control (100 uM Levosimendan).

Chain of BLK (P51451 whole entry): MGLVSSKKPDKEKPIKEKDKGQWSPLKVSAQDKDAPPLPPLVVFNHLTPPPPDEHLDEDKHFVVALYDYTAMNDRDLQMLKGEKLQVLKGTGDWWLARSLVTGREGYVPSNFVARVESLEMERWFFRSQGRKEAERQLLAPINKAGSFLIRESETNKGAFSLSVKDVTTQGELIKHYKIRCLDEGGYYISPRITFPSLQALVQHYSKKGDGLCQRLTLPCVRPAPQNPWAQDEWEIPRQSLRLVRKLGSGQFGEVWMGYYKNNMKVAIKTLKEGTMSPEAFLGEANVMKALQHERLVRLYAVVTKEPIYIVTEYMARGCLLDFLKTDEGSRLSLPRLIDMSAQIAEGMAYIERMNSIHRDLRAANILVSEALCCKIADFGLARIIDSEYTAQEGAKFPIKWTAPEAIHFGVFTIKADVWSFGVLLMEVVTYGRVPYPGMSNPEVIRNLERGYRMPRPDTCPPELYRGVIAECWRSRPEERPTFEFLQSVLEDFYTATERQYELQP
Chain of ROCK2 (O75116 whole entry): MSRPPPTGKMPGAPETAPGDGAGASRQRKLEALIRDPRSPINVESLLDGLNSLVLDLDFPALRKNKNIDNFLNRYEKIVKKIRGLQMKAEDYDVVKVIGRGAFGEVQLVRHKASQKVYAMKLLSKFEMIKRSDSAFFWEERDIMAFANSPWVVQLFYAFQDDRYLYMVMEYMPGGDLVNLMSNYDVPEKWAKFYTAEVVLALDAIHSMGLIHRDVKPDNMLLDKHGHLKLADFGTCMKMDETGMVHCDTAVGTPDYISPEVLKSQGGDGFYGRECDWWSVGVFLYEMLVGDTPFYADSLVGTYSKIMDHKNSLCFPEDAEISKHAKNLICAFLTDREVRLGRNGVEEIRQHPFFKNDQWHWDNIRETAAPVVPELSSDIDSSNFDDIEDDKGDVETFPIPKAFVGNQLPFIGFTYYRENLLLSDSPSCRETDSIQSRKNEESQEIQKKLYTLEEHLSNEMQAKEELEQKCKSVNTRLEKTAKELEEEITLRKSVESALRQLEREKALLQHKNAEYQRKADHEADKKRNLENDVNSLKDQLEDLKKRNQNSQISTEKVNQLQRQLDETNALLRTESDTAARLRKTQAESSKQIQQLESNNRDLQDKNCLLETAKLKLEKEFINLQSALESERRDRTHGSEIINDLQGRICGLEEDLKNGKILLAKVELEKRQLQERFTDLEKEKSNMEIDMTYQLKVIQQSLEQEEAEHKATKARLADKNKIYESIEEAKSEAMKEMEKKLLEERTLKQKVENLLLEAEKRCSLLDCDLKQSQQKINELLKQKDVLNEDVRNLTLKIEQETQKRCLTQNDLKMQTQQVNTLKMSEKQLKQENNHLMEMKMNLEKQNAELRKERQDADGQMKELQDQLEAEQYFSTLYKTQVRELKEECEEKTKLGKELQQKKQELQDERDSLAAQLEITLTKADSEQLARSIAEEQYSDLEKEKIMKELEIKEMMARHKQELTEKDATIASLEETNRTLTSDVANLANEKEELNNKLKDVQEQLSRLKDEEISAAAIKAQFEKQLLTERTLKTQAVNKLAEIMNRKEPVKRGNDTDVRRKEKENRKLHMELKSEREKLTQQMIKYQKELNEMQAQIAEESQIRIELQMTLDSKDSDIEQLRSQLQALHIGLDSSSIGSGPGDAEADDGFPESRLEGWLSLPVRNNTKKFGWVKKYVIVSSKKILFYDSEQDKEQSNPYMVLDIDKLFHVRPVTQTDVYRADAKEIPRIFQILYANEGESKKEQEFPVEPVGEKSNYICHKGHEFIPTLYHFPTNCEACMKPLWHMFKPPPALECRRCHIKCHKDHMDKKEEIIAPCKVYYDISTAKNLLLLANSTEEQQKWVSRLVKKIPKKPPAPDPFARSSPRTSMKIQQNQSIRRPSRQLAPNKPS
Chain of ACVRL1 (P37023 whole entry): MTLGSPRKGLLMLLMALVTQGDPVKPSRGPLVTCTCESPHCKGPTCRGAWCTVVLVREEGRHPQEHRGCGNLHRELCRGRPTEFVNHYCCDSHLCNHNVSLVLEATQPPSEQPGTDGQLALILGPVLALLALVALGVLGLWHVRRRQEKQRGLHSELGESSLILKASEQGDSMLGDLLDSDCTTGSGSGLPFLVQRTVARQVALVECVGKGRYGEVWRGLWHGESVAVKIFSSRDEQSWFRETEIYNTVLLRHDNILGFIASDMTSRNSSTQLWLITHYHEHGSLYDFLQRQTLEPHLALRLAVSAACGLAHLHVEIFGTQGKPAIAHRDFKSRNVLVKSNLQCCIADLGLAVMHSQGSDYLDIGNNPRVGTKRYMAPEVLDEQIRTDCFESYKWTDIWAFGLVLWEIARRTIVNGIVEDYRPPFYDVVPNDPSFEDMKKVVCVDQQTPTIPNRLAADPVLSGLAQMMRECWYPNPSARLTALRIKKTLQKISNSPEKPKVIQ
T6 sequence (P53778 whole entry): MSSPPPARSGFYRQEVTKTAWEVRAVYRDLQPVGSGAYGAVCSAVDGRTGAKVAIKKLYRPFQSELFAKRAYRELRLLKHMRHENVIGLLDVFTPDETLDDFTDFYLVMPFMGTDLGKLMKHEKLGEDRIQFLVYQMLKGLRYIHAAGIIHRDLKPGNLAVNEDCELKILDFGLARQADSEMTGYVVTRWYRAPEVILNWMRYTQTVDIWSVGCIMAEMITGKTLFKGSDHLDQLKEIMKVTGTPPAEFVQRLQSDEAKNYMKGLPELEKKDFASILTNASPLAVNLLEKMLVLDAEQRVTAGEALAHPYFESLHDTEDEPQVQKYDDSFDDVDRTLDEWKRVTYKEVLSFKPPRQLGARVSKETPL
T4 sequence (Q15418 whole entry): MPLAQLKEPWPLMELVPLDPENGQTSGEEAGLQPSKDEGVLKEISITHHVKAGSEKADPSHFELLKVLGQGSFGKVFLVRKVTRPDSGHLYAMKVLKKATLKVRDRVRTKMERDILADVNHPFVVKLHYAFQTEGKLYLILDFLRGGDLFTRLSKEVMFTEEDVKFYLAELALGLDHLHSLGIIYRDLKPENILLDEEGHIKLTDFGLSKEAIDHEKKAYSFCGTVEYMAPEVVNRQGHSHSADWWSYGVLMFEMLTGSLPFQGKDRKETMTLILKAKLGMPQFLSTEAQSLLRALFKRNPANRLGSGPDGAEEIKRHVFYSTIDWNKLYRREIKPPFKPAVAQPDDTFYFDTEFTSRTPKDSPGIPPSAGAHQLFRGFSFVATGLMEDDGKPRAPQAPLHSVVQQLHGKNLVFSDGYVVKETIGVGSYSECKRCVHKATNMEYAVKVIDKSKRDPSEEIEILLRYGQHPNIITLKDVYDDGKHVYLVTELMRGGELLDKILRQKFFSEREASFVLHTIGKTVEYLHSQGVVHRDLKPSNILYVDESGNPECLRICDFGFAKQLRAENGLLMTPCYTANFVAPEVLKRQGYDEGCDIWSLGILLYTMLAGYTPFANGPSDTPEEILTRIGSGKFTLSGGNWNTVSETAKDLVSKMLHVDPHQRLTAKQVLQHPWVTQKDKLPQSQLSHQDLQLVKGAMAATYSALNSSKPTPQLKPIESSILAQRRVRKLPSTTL
Chain of CSK (P41240 whole entry): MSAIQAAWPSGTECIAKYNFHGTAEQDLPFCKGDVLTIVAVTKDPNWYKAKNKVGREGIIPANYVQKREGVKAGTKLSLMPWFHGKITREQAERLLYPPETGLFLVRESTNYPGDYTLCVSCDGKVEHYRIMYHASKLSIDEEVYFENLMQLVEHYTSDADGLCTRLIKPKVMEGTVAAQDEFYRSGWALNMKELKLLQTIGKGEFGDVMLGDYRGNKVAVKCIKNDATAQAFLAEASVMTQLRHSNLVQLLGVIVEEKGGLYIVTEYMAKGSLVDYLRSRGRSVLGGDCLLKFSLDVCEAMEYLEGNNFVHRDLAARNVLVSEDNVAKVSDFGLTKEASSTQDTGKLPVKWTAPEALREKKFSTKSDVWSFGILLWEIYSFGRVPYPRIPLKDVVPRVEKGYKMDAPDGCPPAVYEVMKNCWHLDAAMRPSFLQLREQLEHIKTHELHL
Chain of PRKD3 (O94806 whole entry): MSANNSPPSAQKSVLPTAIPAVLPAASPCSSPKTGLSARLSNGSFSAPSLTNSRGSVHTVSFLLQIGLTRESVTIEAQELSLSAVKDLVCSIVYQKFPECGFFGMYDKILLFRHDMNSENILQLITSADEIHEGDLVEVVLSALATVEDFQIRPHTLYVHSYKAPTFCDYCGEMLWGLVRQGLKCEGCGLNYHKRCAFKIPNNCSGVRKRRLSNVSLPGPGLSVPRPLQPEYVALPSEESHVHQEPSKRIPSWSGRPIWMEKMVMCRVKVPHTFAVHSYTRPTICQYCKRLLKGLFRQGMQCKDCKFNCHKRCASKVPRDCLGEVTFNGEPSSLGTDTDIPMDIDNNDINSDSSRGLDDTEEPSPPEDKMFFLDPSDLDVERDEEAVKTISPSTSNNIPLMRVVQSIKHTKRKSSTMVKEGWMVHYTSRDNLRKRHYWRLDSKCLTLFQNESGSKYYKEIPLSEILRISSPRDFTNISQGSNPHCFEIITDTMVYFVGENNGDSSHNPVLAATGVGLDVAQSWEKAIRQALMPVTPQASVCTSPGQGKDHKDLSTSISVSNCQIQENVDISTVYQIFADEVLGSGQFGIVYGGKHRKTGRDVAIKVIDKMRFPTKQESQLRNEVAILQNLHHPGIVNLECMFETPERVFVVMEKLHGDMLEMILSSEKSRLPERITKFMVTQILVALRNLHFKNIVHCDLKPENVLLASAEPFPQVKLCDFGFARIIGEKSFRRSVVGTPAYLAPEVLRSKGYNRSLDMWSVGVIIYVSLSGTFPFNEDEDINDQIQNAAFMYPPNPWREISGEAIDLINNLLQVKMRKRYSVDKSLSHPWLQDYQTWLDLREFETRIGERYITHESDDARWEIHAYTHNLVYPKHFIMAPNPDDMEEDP

Turning to `C[C@@H]1CC(=O)NN=C1c1ccc(NN=C(C#N)C#N)cc1` [levosimendan], the remaining binding at 100 µM was found to be 100% on ASK1; 87% at LIMK2; 50% on BLK (setting [4]); 90% on CAMK2B; 100% on PRKD3; 78% on TIE2. In addition, the remaining binding at 100 µM at CDK4-cyclinD3 amounted to 100%; on HIPK3, 100%; on CSK, 76%; in experiment [1], 84%; on ERK2, 100%; at CSNK1D, 84%. In addition, the remaining binding at 100 µM was determined as 4.9% at ROCK2 (setting [4]); 30% on ACVRL1 (setting [4]); 52% at p38-gamma (setting [4]); 37% at ABL1-phosphorylated (setting [4]); 68% in experiment [2]; 85% at TSSK1B. Moreover, the remaining binding at 10 µM came out at 79% on BLK (setting [3]); 49% at ROCK2 (setting [3]); 71% on ACVRL1 (setting [3]); 92% on p38-gamma (setting [3]); 100% at ABL1-phosphorylated (setting [3]).

Values taken from paper PMC6576746, “Rational discovery of dual-indication multi-target PDE/Kinase inhibitor for precision anti-cancer therapy using structural systems pharmacology” (PLoS Computational Biology, 2019).
